Experimental findings from patent publication US10028992B2, “Methods of treating muscular dystrophy” (BOARD OF REGENTS OF THE NEVADA SYSTEM OF HIGHER EDUCATION …, priority 2012, dated 2018) are described below.

This experiment relates to α7 integrin promoter. Description: muscle cell-based assay: α7βgal+/− myoblasts/myotubes, LacZ reporter, β-galactosidase cleavage of FDG. Also on record: species or system mouse. The note with it: for AC50: Mus musculus, read-out: Fit Log AC50 (converted); for Fit HillSlope: curve fit; for Fit Zero Activity [%]: fitted activity at zero concentration; for Fit Curve Class: key not given; for Score: Table 12 Compound data, concentration-response curve fit; for Fit Infinite Activity [%]: fitted activity at infinite concentration. Here is the method:
An α7 integrin null mouse was produced in which exon 1 of the gene encoding the α7 integrin was replaced by the LacZ reporter. In these mice, all the transcriptional regulatory elements of the α7 integrin promoter were retained, allowing β-galactosidase to report expression of 7 integrin. A primary myoblast cell line (designated α7βgal^+/−) isolated from 10 day old α7^+/− pups were analyzed for the ability of β-galactosidase to report α7 integrin expression. α7βgal^+/− myoblasts were differentiated and subjected to X-gal staining and western analysis (FIGS. 1A and 1B).
The activity of the α7 integrin promoter was measured by β-galactosidase cleavage of the non-fluorescent compound fluorescein di-β-D-galactopyranoside (FDG) to fluorescein. This assay was used to screen compound libraries to identify molecules that up-regulate α7 integrin expression in muscle.
Also evaluated was the effect of various isoforms of laminin and the ligand for α7β1 integrin on integrin expression. Positive hits were subjected to dose-response analysis, western analysis and a myostatin counterscreen (a negative regulator of muscle growth).

Where [1] appears, read: Table 12, log of AC50, given with negative sign, unit of AC50 not given.

In turn, `CC1CCCCC12NC(=O)N(CC(=O)OCc1cccc(F)c1)C2=O` (stereo not shown) [Compound 67] displayed a Score of 44. The AC50 (commonly the midpoint of the concentration-response curve, whichever way the signal moves) under setting [1] is 10 µM. For the same compound, under “Table 12”, the “Fit HillSlope” value is 1.4163, the “Fit Zero Activity [%]” value was 4.7344% and the “Fit Curve Class” value is reported as 2.1.
In turn, `CNc1nnc(SCC(=O)c2cc(C)n(C3CC3)c2C)s1` [Compound 68] had a Score of 44. Besides, the AC50 under setting [1] was 12.6 µM. Also, for the setting “Table 12”, the “Fit HillSlope” value is given as 4.5045, the “Fit Zero Activity [%]” value is −17.9914% and the “Fit Curve Class” value was 2.1.
As for `CCCCNc1nnc(SCC(=O)c2c(N)n(CCC)c(=O)[nH]c2=O)s1` [Compound 69], the Score was determined as 44. In addition, the AC50 under setting [1] was 3.98 µM. Besides, where the note is “Table 12”, the “Fit HillSlope” value was determined as 1.3987, the “Fit Zero Activity [%]” value is −2.436% and the “Fit Curve Class” value is listed as 2.1.
Compound `C/C(=N\OCC(=O)OC(C)C(=O)Nc1ccc(C(N)=O)cc1)c1ccc2c(c1)OCO2` (stereo not shown) [Compound 70] showed a Score of 44. In addition, the AC50 under setting [1] is 4.47 µM. Where the note is “Table 12”, the “Fit HillSlope” value came to 1.2876, the “Fit Zero Activity [%]” value is −19.1057% and the “Fit Curve Class” value came out at 2.1.
For `COc1cc(C(C(=O)NC2CCCCC2)N(C(=O)c2snc(C(N)=O)c2N)c2ccc(C)cc2)ccc1O` (stereo not shown) [Compound 71], in that order: 44, 7.94 µM, 1.3443, −2.1806% and 2.1.
For `CC1CCN(S(=O)(=O)c2ccc(S(=O)(=O)N3CCCC3)cc2)CC1` [Compound 72], in that order: 44, 8.91 µM, 2.3332, −2.3089% and 2.1.
Compound `CCC(CC)C(=O)Nc1c(C(=O)N2CCN(c3ccccc3)CC2)oc2ccccc12` [Compound 73] registered a Score of 44. For the same compound, the AC50 under setting [1] was 12.6 µM. Also, where the note is “Table 12”, the “Fit HillSlope” value is reported as 4.095, the “Fit Zero Activity [%]” value worked out at 16.3113% and the “Fit Curve Class” value stood at 2.1.
For `COc1ccc(CCNC(=O)c2nn(C)c3c2CS(=O)(=O)c2ccccc2-3)cc1OC` [Compound 74], in that order: 44, 4.47 µM, 1.8617, −23.105% and 2.1.
For `COc1ccc(Nc2ncnc3ccc(Br)cc23)cc1OC` [Compound 75], in that order: 44, 3.98 µM, 1.5579, 26.9551% and 2.2.
For `CCOc1ccc2ccccc2c1C1NC(=O)N(C)C(C)=C1C(=O)OCCOC` (stereo not shown) [Compound 76], in that order: 44, 6.31 µM, 1.3443, −8.518% and 2.1.
The compound `Cc1ccc(NC(=O)NCc2nc3ccccc3n2C)cc1` [Compound 77] yielded a Score of 44. Besides, the concentration at half-maximal activity (AC50) under setting [1] was 4.47 µM. Moreover, under “Table 12”, the “Fit HillSlope” value came to 1.8617, the “Fit Zero Activity [%]” value is on record as −34.2328% and the “Fit Curve Class” value came out at 2.1.
In the case of `COc1ccc(C(=O)ONC(=N)c2cccc(C)c2)cc1OC` [Compound 78], the Score was determined as 44. Also, the AC50 under setting [1] is 10 µM. For the setting “Table 12”, the “Fit HillSlope” value is listed as 1.7137, the “Fit Zero Activity [%]” value came out at 9.6566% and the “Fit Curve Class” value stood at 2.1.
Take `CNc1cc([N+](=O)[O-])ccc1OCc1ccccc1` [Compound 79]: the Score turned out to be 44. Besides, the AC50 under setting [1] was 4.47 µM. Besides, where the note is “Table 12”, the “Fit HillSlope” value is on record as 1.3437, the “Fit Zero Activity [%]” value was −0.3646% and the “Fit Curve Class” value is recorded as 2.1.
For `COC(=O)Cc1c(O)ccn(Cc2ccc3c(c2)OCO3)c1=O` [Compound 80], in that order: 44, 10 µM, 1.4163, −6.484% and 2.1.
For `O=C(Nc1ccccc1F)c1ccc([N+](=O)[O-])s1` [Compound 81], in that order: 44, 12.6 µM, 4.5045, 3.1931% and 2.1.
The compound `C/N=C(\S)N1CCC(NC(=O)C(Cc2ccc(F)cc2)NC(C)=O)CC1` (stereo not shown) [Compound 82] came in with a Score of 44. The AC50 under setting [1] was 3.16 µM. For the same compound, under “Table 12”, the “Fit HillSlope” value is reported as 1.1341, the “Fit Infinite Activity [%]” value worked out at 89.9991%, the “Fit Zero Activity [%]” value is −6.4745% and the “Fit Curve Class” value is 2.1.
Turning to `CCS(=O)(=O)N1CCCC(C(=O)c2ccc(OC)cc2C)C1` (stereo not shown) [Compound 83], the Score is 44. Besides, the AC50 under setting [1] was 11.2 µM. In addition, under “Table 12”, the “Fit HillSlope” value is reported as 2.0937, the “Fit Zero Activity [%]” value was −12.9886% and the “Fit Curve Class” value is reported as 2.1.
For `CCCS(=O)(=O)N1CCCC(C(=O)c2cccc(Cl)c2)C1` (stereo not shown) [Compound 84], in that order: 44, 6.31 µM, 1.2221, −7.9639% and 2.1.
On to `CC(C)(C)c1ccc(C(=O)OCC(=O)Nc2sc3c(c2C#N)CCC3)cc1` [Compound 85], for which the Score amounted to 44. Besides, under setting [1], the AC50 was 5.01 µM. Under “Table 12”, the “Fit HillSlope” value came out at 1.8617, the “Fit Zero Activity [%]” value amounted to 3.2331% and the “Fit Curve Class” value turned out to be 2.1.
For `Cc1ccc(C2=C(CC(=O)O)C(=O)CC2)cc1` [Compound 86], in that order: 44, 4.47 µM, 0.8, 0.4963% and 2.1.
On to `CN(C)c1ccnc2sc(C(N)=O)c(N)c12` [Compound 87], for which the Score turned out to be 44. Under “Table 12”, the “Fit HillSlope” value worked out at 2.1211, the “Fit Zero Activity [%]” value turned out to be 21.3502% and the “Fit Curve Class” value amounted to 2.2.
`C[C@H]1CNC(=O)c2c(C(=O)Nc3ccc(CNC(=O)OC(C)(C)C)cc3)ncn21` [Compound 88] returned a Score of 43. Also, the half-maximal activity concentration (AC50) under setting [1] is 8.91 µM. Besides, for the setting “Table 12”, the “Fit HillSlope” value is 1.01, the “Fit Zero Activity [%]” value is 9.418% and the “Fit Curve Class” value is 2.1.
For `CCCN(C(=O)c1ccc(S(=O)(=O)N2CCCC2)cc1)C1CCS(=O)(=O)C1` (stereo not shown) [Compound 89], in that order: 43, 5.01 µM, 1.6924, −10.8957% and 2.2.
For `CN(CC(=O)Nc1cccc(F)c1)C(=O)c1ccc(-c2ccc(Cl)cc2)o1` [Compound 90], in that order: 43, 11.2 µM, 4.5045, 5.7331% and 2.1.
Compound `COc1ccc(C(=O)N/C(=C/c2cccnc2)C(=O)N2CCN(C)CC2)cc1OC` [Compound 92] had a Score of 43. The AC50 under setting [1] is 4.47 µM. In addition, under “Table 12”, the “Fit HillSlope” value was determined as 1.6259, the “Fit Zero Activity [%]” value came to 1.7602% and the “Fit Curve Class” value was determined as 2.2.
For `COc1cccc(C(=O)NCC(=O)N2CCC3(CC2)NCCc2[nH]cnc23)c1` [Compound 93], in that order: 43, 11.2 µM, 1.7529, −3.6365% and 2.1.
Take `COc1ccc(-c2csc3ncnc(N4CCN(c5ccccc5[N+](=O)[O-])CC4)c23)cc1` [Compound 94]: the Score came out at 43. Besides, under “Table 12”, the “Fit HillSlope” value is listed as 4.9549, the “Fit Infinite Activity [%]” value stood at 138.031%, the “Fit Zero Activity [%]” value worked out at 9.6823% and the “Fit Curve Class” value worked out at 2.1. Moreover, under setting [1], the “Fit Log AC50” value is −5.
`O=C(COc1cc2oc(=O)c3c(c2cc1Cl)CCCC3)NC[C@H]1CC[C@H](C(=O)O)CC1` [Compound 95] registered a Score of 43. For the same compound, the AC50 under setting [1] is 7.08 µM. Under “Table 12”, the “Fit HillSlope” value came to 1.01, the “Fit Zero Activity [%]” value is recorded as −14.8966% and the “Fit Curve Class” value was 2.2.
For `COCCn1c(=N)c(S(=O)(=O)c2ccc(Br)cc2)cc2c(=O)n3ccccc3nc21` [Compound 96], in that order: 43, 4.47 µM, 1.9887, −8.0822% and 2.2.
On to `CN(Cc1c(C(=O)N/N=C/c2cccc(F)c2)nnn1-c1nonc1N)c1ccccc1` [Compound 97], for which the Score is 43. For the same compound, under setting [1], the AC50 was 5.62 µM. In addition, under “Table 12”, the “Fit HillSlope” value amounted to 3.132, the “Fit Zero Activity [%]” value was determined as 1.2108% and the “Fit Curve Class” value turned out to be 2.2.
